Experimental data: patent publication EP0029617A1, “Use of tertiary heterocyclic amines as synergists in pesticides; derivatives of cycloamines” (priority 1979, dated 1981)

Test system: Kornkäfer (sitophilus granarius L)
Assay: whole plant or invertebrate
Format: in vivo
Conditions: for mortality at 1000 µg/mL / Wirksamkeit in % Substanz allein: amine 1 mg/ml in Aceton mixed 1 : 1 with Aceton, 2 ml per dish, 25 weevils, dead counted after 3 h; for mortality at 1000 µg/mL: read-out: Wirksamkeit in % Substanz allein; for Wirksamkeit in % Substanz +Ripcord: amine 1 mg/ml mixed 1 : 1 with Ripcord 0,01 mg/ml; for Wirksamkeit in % Substanz +Talcord: amine 1 mg/ml mixed 1 : 1 with Talcord 0,01 mg/ml
Description: Test von tertiären, heterocyclischen Aminen allein und im Gemisch mit Pyrethroiden an Kornkäfern (sitophilus granarius L)
In Petrischalen mit 15 cm Durchmesser mit talcumbepuderten Seitenwänden, um das Entfliehen der Kornkäfer zu verhindern, wurden jeweils 2 ml der Acetonlösungen einpipettiert und durch vorsichtiges Schwenken der Schalen gleichmäßig auf dem Boden verteilt. Nach dem Abdampfen des Acetons und dem Antrocknen der Beläge wurden in jede Schale 25 Kornkäfer eingezählt. Nach einer Stunde wurde jeweils ein 12,5 cm Rundfilter in die Schalen eingelegt, um den Käfern das Befreien aus der Rückenlage zu ermöglichen, was auf der glatten Glasplatte nicht möglich ist. Die lichtscheuen Käfer verkrochen sich mit Vorliebe unter die Filter und blieben so ständig mit den Wirkstoffbelägen in Kontakt. Alle Versuche liefen mit 3 Wiederholungen. Nach 3 h wurden die toten Käfer ausgezählt.
In der Tabelle 3 ist jeweils der Durchschnitt der Summe der 4 Einzelwerte angegeben. 25 tote Kornkäfer entsprechen dabei einer Wirkung von 100 %. Die Temperaturen betrugen während der Tests im Durchschnitt 19 - 21°C. Der synergistische Faktor berechnet sich analog wie in Beispiel 1 angegeben.
Die zu prüfenden tertiären, heterocyclischen Amine wurden - mit 1 mg Wirkstoff pro ml als Acetonlösungen angesetzt. Sie wurden im Verhältnis 1 : 1 mit Ripcord bzw. Talcord, die mit 0,01 mg Wirkstoff pro ml als Acetonlösung vorlagen, gemischt. Die Einzelkomponenten wurden im Verhältnis 1 : 1 mit Aceton gemischt.
Auch bei diesen Versuchen zeigten die Kontrollversuche stets bei Versuchsende eine Mortalität der Kornkäfer von 0 %.
Die synergistische Wirkung der tertiären, heterocyclischen Amine auf die Pyrethroide ist auch dann noch deutlich, wenn das Amin in wesentlich niederen Aufwandmengen eingesetzt wird, als dies in Beispiel 3 beschrieben wurde. Die Ergebnisse sind in der Tabelle 4 zusammengestellt. Dieser Versuch zeigt auch, daß Amine mit insektiziden Eigenschaften, wenn sie in Konzentrationen unterhalb ihres insektiziden Wirkungsbereiches eingesetzt werden, immer noch gute synergistische Wirkungen im Gemisch mit Pyrethroiden zeigen. Die Versuche wurden wie im Beispiel 3 beschrieben mit Kornkäfern durchgeführt. Es wurden lediglich die Konzentrationen der eingesetzten tertiären, heterocyclischen Amine geändert. Für die Verdünnung Pyrethroid : Amin = 1 : 10 wurde das Amin mit 0,1 mg Wirkstoff/ml Acetonlösung eingesetzt. Für die Verdünnung 1 : 5 mit 0,05 mg Wirkstoff/ml.

[1] = amine 1 mg/ml + Ripcord 0,01 mg/ml
[2] = amine 1 mg/ml + Talcord 0,01 mg/ml
[3] = Pyrethroid : Amin 1 : 10, amine 0,1 mg/ml, 180 min

Compound	mortality at 1000 µg/mL (Sitophilus granarius) [%]	Synergistischer Faktor bei Ripcord [1]	Wirksamkeit in % Substanz +Ripcord (3 h)	Wirksamkeit in % Substanz +Talcord (3 h)	Synergistischer Faktor bei Talcord [2]	Wirksamkeit in % Substanz allein	Synergistischer Faktor bei Ripcord (in vivo)	Synergistischer Faktor bei Talcord (in vivo)	% Wirkung Substanz +Ripcord [3]	% Wirkung Substanz +Talcord [3]	mortality at 100 µg/mL (Sitophilus granarius, 3 h, amine 0,1 mg/ml (as for Pyrethroid : Amin 1 : 10), read-out: % Wirkung Substanz allein) [%]
CCCCCCCCCCCCCCN1CCCC1 [N-1-Tetradecyl-pyrrolidin]	0	1,59	50,0%	6,0%							
CC(C)=CCCC(C)=CCN1CCCCC1 [N-1-Piperidino-3,7-dimethyl-octadien-(2,6)]		2,79	88,0%	81,2%	8,37	0%					
1-N-p-Menthen-piperidin		1,90	60,0%	72,0%	7,42	0%					
C=CCN1CCCCC1 [N-1-Allyl-piperidin]		2,32	73,2%	13,2%	1,36	0%					
c1ccc(CCN2CCOCC2)cc1 [N-1-Phenyl-ethyl-(2)-morpho-lin]		2,76	86,8%	73,2%	7,55	0%					
c1cc2c(cc1CN1CCCCCC1)OCO2 [N-Piperonyl-hexamethylenimin]	0	3,05	96,0%	68,0%	7,01						
CCCCOC(CN1CCCCC1)OCCCC [2-N-Piperidino-ethyl-dibutyl-acetal]			86,8%	36,0%		0%	2,76	3,71			
O=C(OCc1ccccc1)C(c1ccccc1)N1CCCCC1 (centres unmarked) [Phenyl-N-piperidino-essig-säure-benzylester]		3,05	96,0%	28,0%	2,89	0%					
CCCCCN1CCCCC1 [N-1-Pentyl-piperidin]	0	1,94	61,2%	20,0%	2,06						
c1ccc(C(c2ccccc2)N2CCOCC2)cc1 [N-Diphenyl-methyl-morpholin]		2,29	72,0%	40,0%	4,12	0%					
C1CCC(N2CCCC2)CC1 [N-Cyclohexyl-pyrrolidin]	0	2,16	68,0%	17,2%	1,72						
CCCCCN1CCOCC1 [N-1-Pentyl-morpholin]	0	2,79	88,0%	37,2%	3,83						
N#CCN1CCCCCC1 [N-Hexamethylenimino-aceto-nitril]		1,69	53,2%	14,8%	1,53	0%					
CCC1CCCCN1Cc1ccccc1 (centres unmarked) [N-Benzyl-2-ethyl-piperidin]	0	2,50	78,8%	14,8%	1,53						
O=C1CCCCC1CN1CCCCC1 (centres unmarked) [2-N-Piperidino-methyl-cyclo-hexanon]		1,65	70,8%	34,8%	1,65	18,8%					
C#CCN1CCCC1 [3-N-pyrrolidino-propin]		1,61	50,8%	14,8%	1,52	0%					
CN(C)C(=O)N1CCCCC1 [N-Dimethyl-carbamoyl-piperidin]		1,69	53,2%	64,0%	6,60	0%					
CCCCCCCCCCCCN1CCCCC1 [N-1-Dodecyl-piperidin]	24	2,24	94,6%								
CCOC(=O)CCN1CCOCC1 [N-Morpholino-propionsäure-ethylester]		2,07	65,2%	26,8%	2,76	0%					
c1ccc(OCCN2CCCCC2)cc1 [N-2-Phenoxi-ethyl-(1)-piperidin]		2,54	84,0%	68,0%	6,60	4,0%					
c1ccc(CN2CCCCC2)cc1 [N-Benzyl-piperidin]	0		94,8%	32,0%					100,0%	73,2%	0
CCCCCCCCCCN1CCOCC1 [N-1-Decyl-morpholin]	0	2,32	73,1%	81,2%	8,37						
CCCCCCCCCCCCN1CCOCC1 [N-1-Dodecyl-morpholin]	0	2,76	86,8%	14,8%	1,53						
CCCCCCCCN1CCCC1 [N-1-Octyl-pyrrolidin]	0	1,78	56,0%	40,0%	4,12						
c1ccc(OCCN2CCOCC2)cc1 [N-(2-Phenoxi-ethyl-(1))-morpholin]		2,45	77,2%	62,8%	6,47	0%					
C(CCCCN1CCCCC1)CCCN1CCCCC1 [1,8-N,N-Di-piperidino-octan]			90,8%	65,2%		61,2%					
c1ccc(C(N2CCCCC2)N2CCCCC2)cc1 [Benzal-di-N,N-piperidin]			40,0%	18,8%		0%	1,26	1,94			
